Test results taken from ChEMBL document CHEMBL1132393, “Structure-activity relationships of a novel class of Src SH2 inhibitors” (Bioorg Med Chem Lett, 1999).

Target: Proto-oncogene tyrosine-protein kinase Src (Homo sapiens, UniProt P12931)
Experiment: Binding affinity against Src-homology 2 (SRC SH2).

Chain of Proto-oncogene tyrosine-protein kinase Src (P12931 2-536 limits assumed): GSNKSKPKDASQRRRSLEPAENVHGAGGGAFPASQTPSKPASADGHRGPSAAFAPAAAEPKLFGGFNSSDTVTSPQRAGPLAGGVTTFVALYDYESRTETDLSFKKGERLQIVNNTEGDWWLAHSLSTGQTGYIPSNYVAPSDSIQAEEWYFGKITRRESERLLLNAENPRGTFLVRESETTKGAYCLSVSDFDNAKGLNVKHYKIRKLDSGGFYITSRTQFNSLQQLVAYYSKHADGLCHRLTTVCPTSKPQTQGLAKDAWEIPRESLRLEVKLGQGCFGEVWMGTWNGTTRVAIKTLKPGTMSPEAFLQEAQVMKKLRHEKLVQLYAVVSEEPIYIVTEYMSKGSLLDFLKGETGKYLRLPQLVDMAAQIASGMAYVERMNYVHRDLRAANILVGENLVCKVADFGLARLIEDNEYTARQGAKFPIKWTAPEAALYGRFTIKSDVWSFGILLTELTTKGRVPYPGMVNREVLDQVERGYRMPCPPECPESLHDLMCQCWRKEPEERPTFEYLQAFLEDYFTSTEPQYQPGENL

SMILES	IC50 [µM]
CC(=O)N[C@@H](Cc1ccc(OP(=O)(O)O)cc1)C(=O)N[C@@H](Cc1c[nH]c2ccccc12)c1nc(Cc2cccc3ccccc23)no1	279
CC(=O)N[C@@H](Cc1ccc(OP(=O)(O)O)cc1)C(=O)N[C@@H](CCC(=O)O)c1nc(CC2CCCCC2)no1	29
CC(=O)N[C@@H](Cc1ccc(OP(=O)(O)O)cc1)C(=O)N[C@@H](CCC(=O)O)c1nc(CC(C)C)no1	166
CC(=O)N[C@@H](Cc1ccc(OP(=O)(O)O)cc1)C(=O)N[C@@H](Cc1c[nH]c2ccccc12)c1nc(CC2CCCCC2)no1	62
CCCCCCc1noc([C@H](Cc2c[nH]c3ccccc23)NC(=O)[C@H](Cc2ccc(OP(=O)(O)O)cc2)NC(C)=O)n1	16
CC(=O)N[C@@H](Cc1ccc(OP(=O)(O)O)cc1)C(=O)N[C@@H](CCC(=O)O)c1nc(Cc2ccccc2)no1	92
CCCCCc1noc([C@H](CC)NC(=O)[C@H](Cc2ccc(OP(=O)(O)O)cc2)NC(C)=O)n1	65
CC(=O)N[C@@H](Cc1ccc(OP(=O)(O)O)cc1)C(=O)N[C@@H](Cc1c[nH]c2ccccc12)c1nc(Cc2ccccc2)no1	25
CC(=O)N[C@@H](Cc1ccc(OP(=O)(O)O)cc1)C(=O)N[C@@H](Cc1c[nH]c2ccccc12)c1nc(CCCC(C)C)no1	89
CCCCCc1noc([C@H](Cc2c[nH]c3ccccc23)NC(=O)[C@H](Cc2ccc(OP(=O)(O)O)cc2)NC(C)=O)n1	36
CCCCCCc1noc([C@H](CCC(=O)O)NC(=O)[C@H](Cc2ccc(OP(=O)(O)O)cc2)NC(C)=O)n1	8
CCCCCCCc1noc([C@H](Cc2c[nH]c3ccccc23)NC(=O)[C@H](Cc2ccc(OP(=O)(O)O)cc2)NC(C)=O)n1	35
CCCCCCCc1noc([C@H](CCC(=O)O)NC(=O)[C@H](Cc2ccc(OP(=O)(O)O)cc2)NC(C)=O)n1	7
CC(=O)N[C@@H](Cc1ccc(OP(=O)(O)O)cc1)C(=O)N[C@@H](CCC(=O)O)c1nc(CC2CCCCC2)cs1	26
CC(=O)N[C@@H](Cc1ccc(OP(=O)(O)O)cc1)C(=O)N[C@@H](CCC(N)=O)c1nc(CC2CCCCC2)no1	278
CCCCc1noc([C@H](CCC(N)=O)NC(=O)[C@H](Cc2ccc(OP(=O)(O)O)cc2)NC(C)=O)n1	384

SMILES	IC50 [µM]
CCCCCc1noc([C@H](CCC(=O)O)NC(=O)[C@H](Cc2ccc(OP(=O)(O)O)cc2)NC(C)=O)n1	21
CC(=O)N[C@@H](Cc1ccc(OP(=O)(O)O)cc1)C(=O)N[C@@H](Cc1c[nH]c2ccccc12)c1nc(CCC(C)C)no1	33
CC(=O)N[C@@H](Cc1ccc(OP(=O)(O)O)cc1)C(=O)N[C@@H](CCC(N)=O)c1nc(CCC(C)C)no1	320
CC(=O)N[C@@H](Cc1ccc(OP(=O)(O)O)cc1)C(=O)NCc1nc(CC2CCCCC2)cs1	483
CC[C@H](NC(=O)[C@H](Cc1ccc(OP(=O)(O)O)cc1)NC(C)=O)c1nc(CCC(C)C)no1	111
CC(=O)N[C@@H](Cc1ccc(OP(=O)(O)O)cc1)C(=O)N[C@@H](CCC(=O)O)c1nc(CCC(C)C)no1	61
CC(=O)N[C@@H](Cc1ccc(OP(=O)(O)O)cc1)C(=O)N[C@@H](CCC(=O)O)c1nc(CCC(C)C)cs1	76
CC(=O)N[C@@H](Cc1ccc(OP(=O)(O)O)cc1)C(=O)N[C@@H](CCC(=O)O)c1nc(CC(C)C)cs1	218
CCCCCCCc1noc([C@H](CC)NC(=O)[C@H](Cc2ccc(OP(=O)(O)O)cc2)NC(C)=O)n1	22
CC(=O)N[C@@H](Cc1ccc(OP(=O)(O)O)cc1)C(=O)N[C@@H](CCC(=O)O)c1ncc(CC2CCCCC2)s1	16
CCCCCCc1cnc([C@H](Cc2c[nH]c3ccccc23)NC(=O)[C@H](Cc2ccc(OP(=O)(O)O)cc2)NC(C)=O)s1	14
CCCCCCc1noc([C@H](CCC(N)=O)NC(=O)[C@H](Cc2ccc(OP(=O)(O)O)cc2)NC(C)=O)n1	24
CCCCCCc1noc([C@H](CC)NC(=O)[C@H](Cc2ccc(OP(=O)(O)O)cc2)NC(C)=O)n1	25
CCCCCCc1cnc([C@H](CC)NC(=O)[C@H](Cc2ccc(OP(=O)(O)O)cc2)NC(C)=O)s1	12
CC(=O)N[C@@H](Cc1ccc(OP(=O)(O)O)cc1)C(=O)NCc1nc(CC2CCCCC2)no1	896
